Measurements taken from patent publication US12599592B2, “Therapeutic small molecules for treatment of pulmonary hypertension” (UNIVERSITY OF PITTSBURGH—OF THE COMMONWEALTH SYSTEM OF …, priority 2020, dated 2026).
Where a SMILES comes first, the peptide text is derived from it. The star is where a group is joined. Cbz = O=C(OCc1ccccc1)*

Assays:
[1] = system: Cluster 15 (C15) genes incl. LGALS8; experiment: RT-qPCR of Cluster 15 gene expression in PAECs; type: cell-based, human; conditions: PAECs + IL-1β; for IL-1β-induced expression changes in Cluster 15 members SLC9A3R1, LGALS3: 500 nM
Procedure: (§1) Human recombinant galectin-8 (1305-GA-050) was purchased from R&D Systems and was used at a working concentration of 30 nM.
(§2) RT-qPCR analysis: Cells were lysis in 1 ml of QiaZol reagent (Qiagen). Total RNA content was extracted using the RNeasy kit (Qiagen), according to the manufacturer's instructions. Total RNA concentration was determined using a BioTek Synergy multimode plate reader. Messenger RNAs were reverse transcribed to generate cDNA using the Multiscript RT kit (Thermo Fisher Scientific). cDNA for specific gene targets was amplified and quantified via fluorescently-labeled Taqman primer sets and Taqman fast advanced master mix (Thermo Fisher Scientific) using an Applied Biosystems QuantStudio 6 Flex Real-Time PCR System.

chronically hypoxic mice = experiment: Hypoxia-induced pulmonary hypertension mouse model
Excerpt: Animal models: For the hypoxia-induced pulmonary hypertension mice, male C57BL/6J mice (8 weeks old) (RRID:IMSR_JAX:000664) were purchased from Jackson laboratory and acclimatized for 3-4 days in this facility. Subsequently, mice scheduled for normoxic vs. hypoxic exposure were maintained in either normoxia or a normobaric hypoxia chamber for 1 or 3 weeks (OxyCycler, Biospherix Ltd.), where consistent exposure to 10% oxygen and control for temperature and humidity were possible. For testing the activity of I-BET in hypoxia-induced pulmonary hypertension mice, three experimental groups—normoxia+VC (vehicle control), hypoxia+VC (vehicle control), and hypoxia+I-BET were used.
I-BET was dissolved in DMSO at 100× concentration and then made into a working solution in 20% PEG400 and 80% 1×PBS. BRD2889 was made into a working solution of 2.5% DMSO.
Male and female 8 week old Lgals8−/− mice were exposed to hypoxia for 3 weeks. Littermates were used as wildtype (WT) control when comparing with knockout mice.
Immunofluorescent staining: Cryostat sections were cut from OCT-embedded lung tissues at 5-10 μm and mounted on gelatin-coated histological slides. Slides were thawed at room temperature for 10-20 min and rehydrated in wash buffer for 10 minutes. All sections were blocked in 10% donkey serum and exposed to primary antibody and Alexa 488, 568 and 647-conjugated secondary antibodies (Thermo Fisher Scientific). The following primary antibodies were used: Lgals8 (Ab69631, Abcam; 1/200), IL-1β (ab9722, Abcam; 1/200), GSTP1 (ab153949, Abcam; 1:100), ISCU (14812-1-AP, Proteintech; 1:100), cleaved caspase 3 (cs-9661, Cell Signaling; 1/400), α-SMA (F3777, Sigma; 1/200) and CD31 (ab7388, Abcam; 1/200). Images were obtained using Nikon A1 confocal microscope with 40× objective. Small pulmonary vessels (10 vessels/section) that were not associated with bronchial airways were selected for analysis. Intensity of staining was quantified using ImageJ software (NIH). Degree of pulmonary arteriolar muscularization was assessed in OCT lung sections stained for α-SMA by calculation of the proportion of fully and partially muscularized peripheral (<100 μm diameter) pulmonary arteriole to total peripheral pulmonary arterioles (Bertero T et al. J Clin Invest. 2014, 124, 3514-3528).

PAECs [2] = experiment: Mitochondrial superoxide by MitoSOX Red flow cytometry in PAECs; type: cell-based, human
Excerpt: (§3) Cell culture: Primary human pulmonary artery endothelial cells (PAECs) and human pulmonary artery smooth muscle cells (PASMCs) were purchased from Lonza (302-05A, CC-2581). Of note, the same two male donors were the source of all PAECs in the experiments shown. Two additional male donors were the source for all PASMCs in the experiments shown. Cells from these and any donors were characterized by flow cytometry for consistent expression of cell surface markers and by RNA (RT-qPCR) analysis of endothelial and smooth muscle gene expression. PAECs were cultured in EGM-2 media (CC-3121) along with supplements (CC-4133), and PASMCs were cultured in SmGM-2 culture media (Lonza, CC-3182) at 5% CO2 in a humidified incubator.
as §1
(§4) For hypoxia exposure, cells were plated in 6-well cell culture plates at 1×10^5 cells/well, grown for 24 hr and placed into a normobaric hypoxia chamber (1% O2) for 24 h under specific treatment conditions. Namely, for I-BET and siLGALS8 exposures, cells were either pre-treated with I-BET/vehicle control (VC) or transfected with siLgals8/Scr for 24 h. Then, they were cultured in basal media at 1% 02. After 24 h, caspase activity and mitochondrial superoxide levels were quantified. To detect activation status of pSTAT1/STAT1 by immunoblot, cells were exposed to 8 h of hypoxia.
Flow cytometry detection of mitochondrial superoxide: For measuring mitochondrial superoxide, cells were incubated with 5 μM of MitoSOX Red mitochondrial superoxide indicator (Thermo Fisher Scientific) for 10 min in 37° C. CO2 incubator. Next, cells were washed with 1×PBS, trypsinized, and fluorescence (488 nm/580 nm) was measured on flow analyzer (BD LSR FORTESSA or BD LSRII) using BD […] software.

Cluster 15 (C15) genes = experiment: RT-qPCR of Cluster 15 gene expression in PASMCs; type: cell-based, human; conditions: PASMCs + IL-1β
Excerpt: as §3, §1
as §2, with “Total RNA content was extracted using the RNeasy kit (Qiagen), according to the manufacturer's instructions.” left out

LGALS8 = experiment: Immunoblot and densitometry of LGALS8 isoforms in PAECs; type: cell-based, human; conditions: PAECs + IL-1β
Procedure: as §1
(§5) Immunoblot and densitometry: Cells were lysed in RIPA buffer (Sigma) along with 1× protease inhibitor cocktail (Sigma). Protein lysate was resolved by gradient 4%-15% SDS-PAGE gels and transferred onto a 0.2 μm PVDF membrane (Bio-Rad). Membranes were blocked in 5% non-fat milk in 1×PBST buffer for one hour at room temperature. Later, they were incubated in the presence of the primary antibody overnight at 4° C. and then appropriate HRP-conjugated secondary antibodies (Life Technologies). The following antibodies were used: human LGALS8 (AF1305, RnD Systems), mouse/rat Lgals8 (ab69631, Abcam), pSTAT1 (ab29045, Abcam) and STAT1 (ab47425, Abcam), GSTP1 (ab153949, Abcam), ISCU (14812-1-AP, Prointech), Glutathione (ab19534, Abcam), HIF2A (NB100-122, Novous), α-Tubulin (CP06, Millipore sigma), and ACTB (sc-47778, Santa Cruz). The immunoreactive bands were visualized with the Chemidoc XRS+system (Bio-Rad) using SuperSignal West Femto chemiluminescent substrates (Thermo Fisher Scientific). The images were later quantified using AlphaEaseFC software (Alpha Innotech).

[3] = system: SU5416-hypoxic pulmonary arterial hypertension rats; experiment: SU5416-hypoxia pulmonary arterial hypertension rat model; type: in vivo, Sprague-Dawley rats
Procedure: Briefly, 10 week old male Sprague-Dawley rats were injected i.p. with 20 mg/kg of SU5416 (Sigma), placed in normobaric hypoxia (10% O2) for 3 weeks and then transferred to normoxia for 2 weeks. During hypoxic exposure, chambers were opened twice a week for cleaning and replenishment of food and water. […] For BRD2889 vs. vehicle control dosing, i.p. injections every 5 days (5 mg/kg) were administered during the final two weeks of normoxia. Oxygen concentrations were continuously monitored with blood gas analyzers.
Following euthanasia, right ventricle/[left ventricle+septum]
Measurement of GST activity: The GST activity from lung tissue and PAECs was assayed using GST assay kit (Cayman, MI, USA) per the manufacturer's instructions.
Rodent echocardiography: Echocardiography was performed using a 15-45 MHz transthoracic transducer and a Visual Sonics Vevo 3100 system (Fujifilm). Inhaled isoflurane anesthesia was used at 2% in 100% O2 during positioning and hair removal and then decreased to isoflurane 0.8% during imaging.

PAECs [4] = experiment: Global transcriptome microarray in PAECs; type: cell-based, human; conditions: IL-1β +/- I-BET762, microarray
Excerpt: The gene expression was normalized with Robust Multiarray Analysis (RMA). For BRD2889, the same approach was employed using Affymetrix Clariom S array on RNA isolated from PAECs treated with BRD2889 or vehicle and subjected to either hypoxia or normoxia. Differentially expressed genes were defined as any gene for which the FDR adjusted p-value was below 0.05 (n=3/grp). Reversed genes were further defined as those genes that were differentially expressed in both (hypoxia versus normoxia) and in (hypoxia+BRD2889 versus hypoxia)+vehicle as well as were regulated in opposite directions. Similarly, for I-BET that were differentially expressed in IL-1β+VC versus control and IL-1β+I-BET versus IL-1β+VC and were regulated in opposite directions. The data for both I-BET and BRD2889 have been submitted to the NCBI Gene Expression Omnibus with accession numbers GSE125508 and GSE160255, respectively.

PAECs [5] = experiment: Apoptosis by caspase-3/7 activity in PAECs; type: cell-based, human
Excerpt: as §3, §1, §4
(§6) In IL-6/sIL-6R+hypoxia experiments, a human recombinant IL-6/IL-6R alpha protein chimera (25 ng/ml, Millipore) was administered at 70-80% confluency for 48 h in complete media along with vehicle control (DMSO, Sigma-41639). BRD2889 (1 uM) vs. vehicle control were added, as indicated, and placed into a hypoxia chamber for 24 h. The hypoxia chamber (modular incubator chamber) was obtained from Billups-Rothenberg Inc. (Del Mar, Calif) and placed in regulated CO2 incubator at 37° C.
Cellular apoptosis: Caspase-3/7 activity was quantified using the Caspase-Glo 3/7 Assay (Promega), according to manufacturer's instructions. Caspase-3/7 activity was normalized to total protein content determined by BCA method (Thermo Fisher Scientific).

glutathionylated ISCU = experiment: ISCU glutathionylation by immunoprecipitation and immunoblot in PAECs; type: cell-based, human; conditions: hypoxic PAECs, MG132 5 mM, 2 h
Procedure: (§7) Protein stability assay: The proteasome inhibitor MG132 (M7449, Sigma) was stored at −20° C. at a concentration of 10 mM diluted in dimethyl sulfoxide (DMSO). PAECs were exposed to MG132 ([…]) vs. DMSO vehicle control for 2 hr under hypoxia, prior to harvesting of cellular lysate for immunoblotting.
Immunoblot and densitometry: Cells were lysed in RIPA buffer (Sigma) along with 1× protease inhibitor cocktail (Sigma). Protein lysate was resolved by gradient 4%-15% SDS-PAGE gels and transferred onto a 0.2 μm PVDF membrane (Bio-Rad). Membranes were blocked in 5% non-fat milk in 1×PBST buffer for one hour at room temperature. Later, they were incubated in the presence of the primary antibody overnight at 4° C. and then appropriate HRP-conjugated secondary antibodies (Life Technologies). […] The images were later quantified using AlphaEaseFC software (Alpha Innotech).
Immunoprecipitation: PAECs were transfected with the indicated combinations of siRNAs by Lipofectamine 2000 (Thermo Fisher Scientific) according to the manufacturer's instructions and/or treated with BRD2889 ([…], 24 h). […] After extensive washing, the immunoprecipitated proteins were analyzed by immunoblotting with the indicated antibodies.

ISCU = experiment: Immunoblot of ISCU and GSTP1 in PAECs; type: cell-based, human; conditions: hypoxic PAECs, MG132 5 mM, 2 h
Procedure: as §4, §6, §7, §5

[6] = system: normal, non-transformed cells; liver and kidney; conditions: literature report; cited from earlier work
[7] = target: glutathione S-transferase pi 1 (GSTP1) (Homo sapiens, UniProt P09211); conditions: literature report; cited from earlier work
[8] = I-BET762 30 mg/kg daily oral gavage, chronic hypoxia
[9] = PAECs + IL-1β 10 ng/ml 48 h, I-BET762 500 nM vs vehicle
[10] = PAECs, hypoxia 1% O2 24 h, I-BET pre-treatment
[11] = I-BET762 30 mg/kg i.p. daily, Days 21-35
[12] = IL-1β-exposed (48 h) PAECs treated with I-BET and rhGal8 (24 h)
[13] = PAECs, rhGal8 alone (30 nM, 24 h)

Chain of glutathione S-transferase pi 1 (GSTP1) (P09211 whole entry, species assumed): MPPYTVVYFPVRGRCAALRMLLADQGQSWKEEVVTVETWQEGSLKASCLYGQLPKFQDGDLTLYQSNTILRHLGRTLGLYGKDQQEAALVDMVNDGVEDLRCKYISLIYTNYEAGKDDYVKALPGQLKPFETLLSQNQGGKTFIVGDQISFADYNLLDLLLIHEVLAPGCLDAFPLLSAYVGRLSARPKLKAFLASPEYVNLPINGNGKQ

## COc1cc2c(cc1-c1c(C)noc1C)ncc1[nH]c(=O)n([C@H](C)c3ccccn3)c12 [I-BET151]
[1]
  IL-1β-induced expression changes in Cluster 15 members SLC9A3R1, LGALS3: reversed

## CCNC(=O)C[C@@H]1N=C(c2ccc(Cl)cc2)c2cc(OC)ccc2-n2c(C)nnc21 [I-BET762]
[1]
  LGALS8-L transcript: reversed
  LGALS8-M transcript: not altered
  IL-1β-induced expression changes in Cluster 15 members SLC9A3R1, LGALS3: reversed
[1]; I-BET762 500 nM
  expression of C15 genes LGALS3, LGALS8, ABCC4, CD47, SLC9A3R1, DAG1: reversed
  extent of reversal of C15 genes LGALS3, LGALS8, DAG1, SLC9A3R1: near complete reversal
Chronically hypoxic mice; [8]
  heart rate: without significant effect
  pulmonary vascular LGALS8, including in endothelial cells: robustly decreased
  pulmonary vascular muscularization (α-SMA stain): reduced
  right ventricular systolic pressure (RVSP): reduced
Chronically hypoxic mice; hypoxic mice, most notable at early stage (1 week hypoxia)
  downstream apoptosis (cleaved caspase-3): reduced downstream apoptosis
Chronically hypoxic mice; normoxic mice, similar dosing, mean±SEM, vehicle 1±0.02, p=NS
  LGALS8 in normoxic mice: 1.08±0.03 fold change
PAECs [2]; [9]
  mitochondrial superoxide (O2-) levels: reduced the IL-1β-dependent increase
PAECs [2]; [10]
  mitochondrial superoxide levels: reversed the hypoxia-induced increases
Cluster 15 (C15) genes
  alteration and reversal of C15 genes including LGALS8: not observed
LGALS8
  LGALS8-L protein (immunoblot): reversed the IL-1β-induced increase of the L isoform
[3]; [11]
  LGALS8 in pulmonary arterioles (immunofluorescence): decreased
  arteriolar muscularization: reduced
  cleaved caspase-3 (CC-3) in pulmonary arterioles: decreased
  right ventricular systolic pressure (RVSP): reduced
[3]; I-BET762 vs vehicle
  left ventricular function (LVPW thickness, LVEF, LVFS; echocardiography): did not exhibit altered left ventricular function
PAECs [4]
  number of genes altered by IL-1β vs vehicle and reversed by drug: 524 genes
PAECs [5]; [9]
  apoptosis (caspase-3/7 activity): reduced the IL-1β-dependent increase
PAECs [5]; [10]
  apoptosis (caspase-3/7 activity): reversed the hypoxia-induced increases

## CC(C)C[C@@H](C=O)NC(=O)[C@H](CC(C)C)NC(=O)[C@H](CC(C)C)NC(=O)OCc1ccccc1 [MG132, reference compound] (Cbz-Leu-Leu-Leu-aldehyde)
Glutathionylated ISCU
  GSTP1 or ISCU glutathionylation: without affecting
ISCU
  ISCU protein: reversed the hypoxic down-regulation

## COc1cc(/C=C/C(=O)N2CCC=CC2=O)cc(OC)c1OC [piperlongumine, reference compound]
[6]
  toxicity to normal, non-transformed cells: minimal toxicity
[7]
  inhibition of GSTP1: reported to inhibit

B1: rhGal8: recombinant human galectin-8 (R&D Systems 1305-GA-050) (protein, UniProt O00214 1-317, looked up)
Galectin-8: MMLSLNNLQNIIYNPVIPFVGTIPDQLDPGTLIVIRGHVPSDADRFQVDLQNGSSMKPRADVAFHFNPRFKRAGCIVCNTLINEKWGREEITYDTPFKREKSFEIVIMVLKDKFQVAVNGKHTLLYGHRIGPEKIDTLGIYGKVNIHSIGFSFSSDLQSTQASSLELTEISRENVPKSGTPQLRLPFAARLNTPMGPGRTVVVKGEVNANAKSFNVDLLAGKSKDIALHLNPRLNIKAFVRNSFLQESWGEEERNITSFPFSPGMYFEMIIYCDVREFKVAVNGVHSLEYKHRFKELSSIDTLEINGDIHLLEVRSW
PAECs [2]; [12]
  I-BET-induced attenuation of IL-1β-specific mitochondrial superoxide: reduced the ability of I-BET to decrease
PAECs [2]; [13]
  mitochondrial superoxide: no effect
PAECs [5]; [12]
  I-BET-induced attenuation of IL-1β-specific apoptosis (caspase 3/7): reduced the ability of I-BET to decrease
PAECs [5]; [13]
  apoptosis (caspase 3/7 activity): no effect
